# According to US20250236655A1, “PROCESS FOR THE PREPARATION OF LIRAGLUTIDE” (SHILPA PHARMA LIFESCIENCES LIMITED, priority 2024, published 2025):
# Assay: storage stability of liraglutide obtained by the present process
# Type: physicochemical
# Settings: liraglutide of purity greater or equal to 99.5% obtained as per the present process
substance,measurement,value
Liraglutide,stable to handle and store without any significant or measurable change in its morphology and physicochemical characteristics,more than 6 months
